# According to patent publication US20250025445A1, “METHOD OF CARDIOPROTECTION” (Race Oncology LTD., priority 2021, published 2025):
# Where two headings read alike, the source gives them in different places.
# Tests used:
# [1] = tested on: colon 26, Lewis lung, Ridgway osteosarcoma, B16, Lieberman plasma cell, P388 or L1210 cancer cells; settings: cited from earlier work
# [2] = bisantrene 3.67 mg/kg + doxorubicin 5 mg/kg (Dox+Bis 1:1)
# [3] = bisantrene 5.65 mg/kg + doxorubicin 4 mg/kg (Dox+Bis 80% of 1:2)
structure (smiles),measurement,setting,value
"C(=NNC1=NCCN1)c1c2ccccc2c(C=NNC2=NCCN2)c2ccccc12 [bisantrene, 9,10-anthracenedicarboxaldehyde bis [(4,5-dihydro-1H-imidazol-2-yl)hydrazone]]",effectiveness in cancer models,[1],effective
same,mitigation of doxorubicin cardiotoxicity: cardiac output,[2],mitigation of doxorubicin cardiotoxicity
same,mitigation of doxorubicin cardiotoxicity: left ventricular diastolic function,[2],appeared to mitigate the cardiotoxic effects
same,mitigation of doxorubicin cardiotoxicity: left ventricular dilatation,[2],appeared to mitigate the cardiotoxic effects
same,mitigation of doxorubicin cardiotoxicity: left ventricular fractional shortening,[2],significantly mitigated
same,mitigation of doxorubicin cardiotoxicity: cardiac output,[3],even less effect
same,mitigation of doxorubicin cardiotoxicity: left ventricular fractional shortening,[3],less effect
same,mitigation of doxorubicin cardiotoxicity: left ventricular fractional shortening,bisantrene 7.33 mg/kg + doxorubicin 5 mg/kg (Dox+Bis 1:2),significantly mitigated
same,mitigation of doxorubicin cardiotoxicity: cardiac output,"bisantrene 7.33 mg/kg + doxorubicin 5 mg/kg (Dox+Bis 1:2), compared to Dox+Bis 1:1",mitigation of doxorubicin cardiotoxicity was slightly greater
same,cardiac output,bisantrene 7.33 mg/kg alone,suggestion (but not significant) of mild deleterious effects
same,left ventricular diastolic function,bisantrene 7.33 mg/kg alone,suggestion (but not significant) of mild deleterious effects
same,left ventricular dilatation,bisantrene 7.33 mg/kg alone,suggestion (but not significant) of mild deleterious effects
same,left ventricular fractional shortening,"bisantrene 7.33 mg/kg alone, i.v. days 0, 7, 14, 21",suggestion (but not significant) of mild deleterious effects
